This is an account of results in patent US20190270733A1, “Quinoline and Isoquinoline Based HDAC Inhibitors and Methods of Use Thereof” (Reaction Biology Corp., priority 2018, published 2019).

For experiment [1], the target named is T1, Recombinant human HDAC6 (Homo sapiens, UniProt Q9UBN7).
T1 construct: full-length, MW=180 kDa; GST tag (N); made in house; host or cells: Sf9 insect cells (baculovirus)
T1 sequence (Q9UBN7 1-1215): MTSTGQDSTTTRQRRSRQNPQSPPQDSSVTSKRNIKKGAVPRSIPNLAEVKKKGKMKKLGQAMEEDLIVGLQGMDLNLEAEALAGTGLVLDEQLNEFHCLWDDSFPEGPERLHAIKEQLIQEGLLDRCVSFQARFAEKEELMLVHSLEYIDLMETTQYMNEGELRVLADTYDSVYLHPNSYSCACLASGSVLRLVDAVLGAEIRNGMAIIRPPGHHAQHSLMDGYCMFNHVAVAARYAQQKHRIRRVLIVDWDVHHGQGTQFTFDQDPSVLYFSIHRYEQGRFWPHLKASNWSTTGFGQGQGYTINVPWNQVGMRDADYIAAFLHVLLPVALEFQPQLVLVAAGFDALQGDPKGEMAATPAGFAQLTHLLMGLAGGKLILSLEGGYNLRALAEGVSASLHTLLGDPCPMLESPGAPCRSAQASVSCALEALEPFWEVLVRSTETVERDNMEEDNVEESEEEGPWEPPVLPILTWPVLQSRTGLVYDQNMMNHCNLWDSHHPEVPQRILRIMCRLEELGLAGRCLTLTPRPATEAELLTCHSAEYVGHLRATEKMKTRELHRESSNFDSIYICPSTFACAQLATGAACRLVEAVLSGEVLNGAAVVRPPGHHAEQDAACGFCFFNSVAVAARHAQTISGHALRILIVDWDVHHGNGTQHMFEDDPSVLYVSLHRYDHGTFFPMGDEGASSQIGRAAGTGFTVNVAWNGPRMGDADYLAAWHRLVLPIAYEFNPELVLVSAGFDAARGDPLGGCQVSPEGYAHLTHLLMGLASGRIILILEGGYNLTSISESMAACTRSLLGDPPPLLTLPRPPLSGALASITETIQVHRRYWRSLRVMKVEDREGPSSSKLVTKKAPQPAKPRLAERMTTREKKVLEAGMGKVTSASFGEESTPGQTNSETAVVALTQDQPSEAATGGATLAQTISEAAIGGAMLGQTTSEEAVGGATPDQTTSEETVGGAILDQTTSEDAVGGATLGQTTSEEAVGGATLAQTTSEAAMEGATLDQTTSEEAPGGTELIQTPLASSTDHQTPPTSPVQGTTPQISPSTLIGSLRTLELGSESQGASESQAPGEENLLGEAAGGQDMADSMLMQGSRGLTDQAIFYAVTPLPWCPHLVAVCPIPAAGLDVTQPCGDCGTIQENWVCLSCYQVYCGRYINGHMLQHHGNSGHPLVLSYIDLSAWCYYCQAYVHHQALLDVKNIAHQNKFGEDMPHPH
The experiment is described as follows: Biochemical HDAC assay, HDAC6. Particulars: incubation time 10 min. How it is done: Recombinant human HDAC6 (GenBank Accession No. BC069243), full-length, MW=180 kDa, was expressed by baculovirus in Sf9 insect cells using an N-terminal GST tag.
(§1) • I. Compound handling: Testing compounds were dissolved in 100% DMSO to a specific concentration. The serial dilution was conducted by epMotion 5070 in DMSO. • II. HDAC reaction buffer: 50 mM Tris-HCl, pH8.0, 137 mM NaCl, 2.7 mM KCl, and 1 mM MgCl2, Added fresh: 1 mg/ml BSA, 1% DMSO. • III. Substrate: Fluorogenic HDAC General Substrate for HDAC1, 2, 3, 6, 10, 11 ans Sirt1, 2 and 3: Arg-His-Lys-Lys(Ac); HDAC8 only substrate: Arg-His-Lys(Ac)-Lys(Ac); Class2A Substrate (HDAC4, 5, 7 and 9): Acetyl-Lys(trifluoroacetyl)-AMC; Sirt5 substrate: Ac-Lys(succinyl)-AMC. • IV. General Reaction Procedure: (Standard IC50 determination) • a. Delivered 2× enzyme in wells of reaction plate except No Enzyme (No En) control wells. Add buffer in No En wells. • b. Delivered compounds in 100% DMSO into the enzyme mixture by Acoustic technology (Echo550; nanoliter range). Spin down and pre-incubation. • c. Delivered 2× Substrate Mixture (Fluorogenic HDAC Substrate and co-factor (500 μM of Nicotinamide adenine dinucleotide (NAD^+) in all Sirt assay) in all reaction wells to initiate the reaction. Spin and shake. • d. Incubated for 1-2 hr. at 30° C. with seal. • e. Added Developer with Trichostatin A (or TMP269 or NAD^+) to stop the reaction and to generate fluorescent color. • f. Fluorescence was read (excitatory, 360; emission, 460) using the EnVision Multilabel Plate Reader (Perkin Elmer) • g. Endpoint reading was taken for analysis after the development reaches plateau. • V. Data Analysis: The percentages of enzyme activity (relative to DMSO controls) and IC50 values were calculated using the GraphPad Prism 4 program based on a sigmoidal dose-response equation.
(§2) Compounds with indicated doses was tested in the biochemical assays of HDAC1, HDAC2, HDAC3, HDAC4, HDAC5, HDAC6, HDAC7, HDAC8, HDAC9, HDAC10, or HDAC11 enzyme. The incubation time in HDAC1/2 assays are 120 min, and that for other HDACs are 10 min. The curve fit and IC50 values were calculated using the GraphPad Prism 4 program based on a sigmoidal dose-response equation.

For experiment [2], the target named is T2, Complex of human HDAC3 and human NCOR2 (Homo sapiens, UniProt O15379).
T2 construct: full-length with a C-terminal His tag; His tag (C); made in house
The experiment is described as follows: Biochemical HDAC assay, HDAC3. Particulars: incubation time 10 min. How it is done:
Complex of human HDAC3 (GenBank Accession No. NM_003883), full-length with a C-terminal His tag, MW=49.7 kDa, and human NCOR2 (amino acid 395-489) (GenBank Accession No. NM_006312), N-terminal GST tag, MW=37.6 kDa, was co-expressed in a baculovirus expression system.
as §1, §2

Experiment [3] concerns the target T3, Human HDAC1 (Homo sapiens, UniProt Q13547).
T3 construct: full-length with a C-terminal His-tag and a C-terminal FLAG-tag; His-tag (C); FLAG-tag (C); made in house
The experiment is described as follows: Biochemical HDAC assay, HDAC1. The note with it: incubation time 120 min. How it is done:
Human HDAC1 (GenBank Accession No. NM_004964), full-length with a C-terminal His-tag and a C-terminal FLAG-tag, MW=56 kDa, was expressed in a baculovirus expression system.
as §1, §2

Experiment [4] concerns the target T4, Human HDAC2 (Homo sapiens, UniProt Q92769).
T4 construct: full-length with a C-terminal His-tag; His-tag (C); made in house
The experiment is described as follows: Biochemical HDAC assay, HDAC2. Particulars: incubation time 120 min. How it is done: Human HDAC2 (GenBank Accession No. NM_001527), full-length with a C-terminal His-tag, MW=56 kDa, was expressed in a baculovirus expression system.
as §1, §2

Experiment [5] concerns the target T5, Human HDAC8 (Homo sapiens, UniProt Q9BY41).
T5 construct: full-length with a C-terminal His tag; His tag (C); made in house
T5 sequence (Q9BY41 1-377): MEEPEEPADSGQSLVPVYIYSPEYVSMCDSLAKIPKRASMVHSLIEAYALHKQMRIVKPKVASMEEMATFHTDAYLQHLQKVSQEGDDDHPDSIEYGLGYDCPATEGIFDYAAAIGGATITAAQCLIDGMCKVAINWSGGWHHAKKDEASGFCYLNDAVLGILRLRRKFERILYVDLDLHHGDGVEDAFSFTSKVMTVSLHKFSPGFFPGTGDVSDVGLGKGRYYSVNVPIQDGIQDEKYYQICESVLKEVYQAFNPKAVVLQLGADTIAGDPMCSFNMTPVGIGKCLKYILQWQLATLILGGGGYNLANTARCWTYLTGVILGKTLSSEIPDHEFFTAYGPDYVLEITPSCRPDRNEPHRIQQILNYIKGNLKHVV
Nature of the experiment: Biochemical HDAC assay, HDAC8. The note with it: incubation time 10 min. As to the method:
Human HDAC8 (GenBank Accession No. NM_018486), full-length with a C-terminal His tag, MW=46.4 kDa, was expressed in a baculovirus expression system.
as §1, §2

T3 sequence (Q13547 whole entry): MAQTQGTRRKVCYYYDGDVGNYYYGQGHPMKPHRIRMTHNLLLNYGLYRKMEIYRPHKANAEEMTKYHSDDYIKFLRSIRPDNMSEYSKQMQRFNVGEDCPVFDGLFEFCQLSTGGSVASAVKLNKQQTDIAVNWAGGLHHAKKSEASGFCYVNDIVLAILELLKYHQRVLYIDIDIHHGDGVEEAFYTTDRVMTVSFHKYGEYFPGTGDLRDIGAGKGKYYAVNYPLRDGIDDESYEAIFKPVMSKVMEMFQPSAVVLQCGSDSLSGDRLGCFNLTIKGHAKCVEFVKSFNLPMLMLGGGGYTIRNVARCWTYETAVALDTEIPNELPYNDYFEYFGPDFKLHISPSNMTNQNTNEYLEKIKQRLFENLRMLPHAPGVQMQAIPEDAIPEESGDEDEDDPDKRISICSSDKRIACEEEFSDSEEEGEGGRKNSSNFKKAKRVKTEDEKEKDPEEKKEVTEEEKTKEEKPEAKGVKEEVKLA
T2 sequence (O15379 whole entry): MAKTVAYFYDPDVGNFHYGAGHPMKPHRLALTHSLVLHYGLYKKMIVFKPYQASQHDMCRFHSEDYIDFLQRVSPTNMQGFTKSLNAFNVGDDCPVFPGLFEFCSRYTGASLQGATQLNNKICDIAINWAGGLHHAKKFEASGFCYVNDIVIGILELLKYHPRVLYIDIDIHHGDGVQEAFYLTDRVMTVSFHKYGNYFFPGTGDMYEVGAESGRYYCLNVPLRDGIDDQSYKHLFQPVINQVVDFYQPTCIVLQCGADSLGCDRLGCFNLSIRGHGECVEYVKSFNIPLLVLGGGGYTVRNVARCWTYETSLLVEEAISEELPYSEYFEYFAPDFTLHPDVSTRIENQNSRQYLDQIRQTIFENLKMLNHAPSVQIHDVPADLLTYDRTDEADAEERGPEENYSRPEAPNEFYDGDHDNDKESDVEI
T2 sequence (Q9Y618 395-489 partner limits assumed): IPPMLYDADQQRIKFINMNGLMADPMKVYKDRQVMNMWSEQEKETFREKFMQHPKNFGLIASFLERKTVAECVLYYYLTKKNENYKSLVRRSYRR
T4 sequence (Q92769 whole entry): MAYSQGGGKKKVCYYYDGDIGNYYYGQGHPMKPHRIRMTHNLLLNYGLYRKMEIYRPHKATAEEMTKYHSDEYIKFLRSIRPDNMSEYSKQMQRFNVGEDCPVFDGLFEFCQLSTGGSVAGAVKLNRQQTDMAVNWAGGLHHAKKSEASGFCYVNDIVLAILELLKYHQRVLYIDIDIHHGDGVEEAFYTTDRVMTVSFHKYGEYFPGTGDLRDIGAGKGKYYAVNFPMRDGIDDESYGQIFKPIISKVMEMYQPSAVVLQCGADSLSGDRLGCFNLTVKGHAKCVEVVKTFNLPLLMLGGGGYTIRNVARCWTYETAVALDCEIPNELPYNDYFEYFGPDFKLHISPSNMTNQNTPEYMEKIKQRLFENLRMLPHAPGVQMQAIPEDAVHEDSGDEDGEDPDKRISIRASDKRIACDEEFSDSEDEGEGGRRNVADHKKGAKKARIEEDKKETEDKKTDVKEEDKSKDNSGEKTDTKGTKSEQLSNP

With `Nc1ccc(-c2cccs2)cc1NC(=O)c1ccc2c(c1)CCNC2=O` [Example 1, N-(2-amino-5-(thiophen-2-yl)phenyl)-1-oxo-1,2,3,4-tetrahydroisoquinoline-6-carboxamide], the IC50 in experiment [1] was above 10000 nM; in experiment [2], above 10000 nM; in experiment [3] it was 1.8 nM; in experiment [4] it was 24 nM; in experiment [5], above 10000 nM.
For the compound `Nc1ccc(-c2cccs2)cc1NC(=O)c1ccc2c(c1)CCN(CC1CCOCC1)C2=O` [Example 2, N-(2-amino-5-(thiophen-2-yl)phenyl)-1-oxo-2-((tetrahydro-2H-pyran-4-yl)methyl)-1,2,3,4-tetrahydroisoquinoline-6-carboxamide], the IC50 in experiment [1] was above 10000 nM; in experiment [2], above 10000 nM; in experiment [3], 1.9 nM; in experiment [4], 23 nM; in experiment [5], above 10000 nM.
For `Nc1ccc(-c2cccs2)cc1NC(=O)c1ccc2c(c1)CCN(C(=O)c1cccnc1)C2` [Example 4, N-(2-amino-5-(thiophen-2-yl)phenyl)-2-nicotinoyl-1,2,3,4-tetrahydroisoquinoline-6-carboxamide], the IC50 in experiment [1] was above 10000 nM; in experiment [2], above 10000 nM; in experiment [3], 3 nM; in experiment [4] it was 39 nM; in experiment [5], above 10000 nM.
Regarding `Nc1ccc(-c2cccs2)cc1NC(=O)c1ccc2c(c1)CCN(C(=O)C1CCOCC1)C2` [Example 3, N-(2-amino-5-(thiophen-2-yl)phenyl)-2-(tetrahydro-2H-pyran-4-carbonyl)-1,2,3,4-tetrahydroisoquinoline-6-carboxamide], the IC50 is above 10000 nM in experiment [1]; above 10000 nM in experiment [2]; 2.6 nM in experiment [3]; 25 nM in experiment [4]; above 10000 nM in experiment [5].

In general, IC50 refers to the concentration needed to halve the response being measured.
